From US7157442B2, “Antibacterial compound” (Sankyo Company, Limited, priority 1999, dated 2007)
In brackets after ≈: the same amount, converted by molar mass.

System: M. tuberculosis No. 74
Assay: In vitro antibacterial activity (2): MIC by broth dilution method
Type: cell-based, Mycobacterium tuberculosis
Settings: rifampicin-resistant strain; for MIC: Mycobacterium tuberculosis, NO.74, Middlebrook 7H9 broth, 35° C. for 10–21 days, read-out: MICs against Mycobacterium tuberculosis, M. tuberculosis No. 74

| Compound | MIC [µg/mL] | antibacterial activity against M. tuberculosis No. 74 (in words) |
| --- | --- | --- |
| CO[C@H]1[C@@H](O)[C@H](n2ccc(=O)[nH]c2=O)O[C@@H]1[C@@H](O[C@H]1OC(C(=O)Nc2ccc(F)c(F)c2)=C[C@H](O)[C@@H]1O)C(N)=O [Exemplification Compound No. 3712] | 8 (≈ 14 µM) | excellent antibacterial activity |
| CO[C@H]1/C=C/O[C@@]2(C)Oc3c(C)c(O)c4c(O)c(c(/C=N/N5CCN(C)CC5)c(O)c4c3C2=O)NC(=O)/C(C)=C\C=C\[C@H](C)[C@H](O)[C@@H](C)[C@@H](O)[C@@H](C)[C@H](OC(C)=O)[C@@H]1C [rifampicin, reference compound] | 128 (≈ 156 µM) |  |
